Data taken from the supplement of paper PMC10307832.

Experiments:
Assay in all cases: relative viability (nuclei count vs DMSO), 5 days (fraction); higher = more cells survive
NCI-H1792 = tested on: NCI-H1792
Summary of the method: (§1)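 The day after seeding in 1536-well plates, lung cancer cell lines were treated by pin tool with a single drug, or with a fixed anchor-drug dose together with five library-drug doses (not always all listed) in √10 steps. After 5 days, a combined fix-and-stain solution (final 0.05% Triton X-100, 1% formaldehyde, 1 ug/ml Hoechst) was added. Nuclei counted on 4× images gave relative viability as treated counts over vehicle counts, reported as the median of duplicate plates.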

LOU-NH91 = tested on: LOU-NH91
Summary of the method: as §1

NCI-H1437 = tested on: NCI-H1437
Summary of the method: as §1

NCI-H2170 = tested on: NCI-H2170
Summary of the method: as §1

NCI-H23 = tested on: NCI-H23
Summary of the method: as §1

NCI-H2023 = tested on: NCI-H2023
Summary of the method: as §1

NCI-H322M = tested on: NCI-H322M
Summary of the method: as §1

ChaGo-K-1 = tested on: ChaGo-K-1
Summary of the method: as §1

NCI-H1755 = tested on: NCI-H1755
Summary of the method: as §1

HOP-62 = tested on: HOP-62
Summary of the method: as §1

NCI-H2009 = tested on: NCI-H2009
Summary of the method: as §1

NCI-H650 = tested on: NCI-H650
Summary of the method: as §1

NCI-H1355 = tested on: NCI-H1355
Summary of the method: as §1

NCI-H2405 = tested on: NCI-H2405
Summary of the method: as §1

SK-MES-1 = tested on: SK-MES-1
Summary of the method: as §1

LCLC-97TM1 = tested on: LCLC-97TM1
Summary of the method: as §1

NCI-H441 = tested on: NCI-H441
Summary of the method: as §1

ABC-1 = tested on: ABC-1
Summary of the method: as §1

RERF-LC-KJ = tested on: RERF-LC-KJ
Summary of the method: as §1

NCI-H727 = tested on: NCI-H727
Summary of the method: as §1

NCI-H2085 = tested on: NCI-H2085
Summary of the method: as §1

UMC-11 = tested on: UMC-11
Summary of the method: as §1

O=C(O)CCCCC(CCSCc1ccccc1)SCc1ccccc1 (centres undefined) [CPI-613] + CCNC(=O)c1noc(-c2cc(C(C)C)c(O)cc2O)c1-c1ccc(CN2CCOCC2)cc1 [Luminespib] (partner 0.01 µM)
relative viability (NCI-H1792; first compound 5 µM): 0.512 | relative viability (NCI-H1792; first compound 15.81 µM): 0.396 | relative viability (NCI-H1792; first compound 50 µM): 0.375 | relative viability (NCI-H1792; first compound 158.11 µM): 0.353 | relative viability (NCI-H1792; first compound 500 µM): 0.39 | relative viability (LOU-NH91; first compound 5 µM): 0.344 | relative viability (LOU-NH91; first compound 15.81 µM): 0.325 | relative viability (LOU-NH91; first compound 50 µM): 0.323 | relative viability (LOU-NH91; first compound 158.11 µM): 0.309 | relative viability (LOU-NH91; first compound 500 µM): 0.34 | relative viability (NCI-H1437; first compound 5 µM): 1.09 | relative viability (NCI-H1437; first compound 15.81 µM): 1.04 | relative viability (NCI-H1437; first compound 50 µM): 1.07 | relative viability (NCI-H1437; first compound 158.11 µM): 0.53 | relative viability (NCI-H1437; first compound 500 µM): 0.0571 | relative viability (NCI-H2170; first compound 5 µM): 0.754 | relative viability (NCI-H2170; first compound 15.81 µM): 0.573 | relative viability (NCI-H2170; first compound 50 µM): 0.524 | relative viability (NCI-H2170; first compound 158.11 µM): 0.196 | relative viability (NCI-H2170; first compound 500 µM): 0.0909 | relative viability (NCI-H23; first compound 5 µM): 0.224 | relative viability (NCI-H23; first compound 15.81 µM): 0.222 | relative viability (NCI-H23; first compound 50 µM): 0.234 | relative viability (NCI-H23; first compound 158.11 µM): 0.129 | relative viability (NCI-H23; first compound 500 µM): 0.0632 | relative viability (NCI-H2023; first compound 5 µM): 0.791 | relative viability (NCI-H2023; first compound 15.81 µM): 0.692 | relative viability (NCI-H2023; first compound 50 µM): 0.736 | relative viability (NCI-H2023; first compound 158.11 µM): 0.052 | relative viability (NCI-H2023; first compound 500 µM): 0.0128 | relative viability (NCI-H322M; first compound 5 µM): 0.777 | relative viability (NCI-H322M; first compound 15.81 µM): 0.781 | relative viability (NCI-H322M; first compound 50 µM): 0.826 | relative viability (NCI-H322M; first compound 158.11 µM): 0.53 | relative viability (NCI-H322M; first compound 500 µM): 0.0612 | relative viability (ChaGo-K-1; first compound 5 µM): 0.533 | relative viability (ChaGo-K-1; first compound 15.81 µM): 0.61 | relative viability (ChaGo-K-1; first compound 50 µM): 0.596 | relative viability (ChaGo-K-1; first compound 158.11 µM): 0.204 | relative viability (ChaGo-K-1; first compound 500 µM): 0.11 | relative viability (NCI-H1755; first compound 5 µM): 0.613 | relative viability (NCI-H1755; first compound 15.81 µM): 0.508 | relative viability (NCI-H1755; first compound 50 µM): 0.24 | relative viability (NCI-H1755; first compound 158.11 µM): 0.34 | relative viability (NCI-H1755; first compound 500 µM): 0.185 | relative viability (HOP-62; first compound 5 µM): 0.882 | relative viability (HOP-62; first compound 15.81 µM): 0.944 | relative viability (HOP-62; first compound 50 µM): 0.894 | relative viability (HOP-62; first compound 158.11 µM): 0.627 | relative viability (HOP-62; first compound 500 µM): 0.607 | relative viability (NCI-H2009; first compound 5 µM): 1.06 | relative viability (NCI-H2009; first compound 15.81 µM): 0.954 | relative viability (NCI-H2009; first compound 50 µM): 0.936 | relative viability (NCI-H2009; first compound 158.11 µM): 0.179 | relative viability (NCI-H2009; first compound 500 µM): 0.012 | relative viability (NCI-H650; first compound 5 µM): 0.811 | relative viability (NCI-H650; first compound 15.81 µM): 0.732 | relative viability (NCI-H650; first compound 50 µM): 0.852 | relative viability (NCI-H650; first compound 158.11 µM): 0.69 | relative viability (NCI-H650; first compound 500 µM): 0.613 | relative viability (NCI-H1355; first compound 5 µM): 0.692 | relative viability (NCI-H1355; first compound 15.81 µM): 0.701 | relative viability (NCI-H1355; first compound 50 µM): 0.691 | relative viability (NCI-H1355; first compound 158.11 µM): 0.25 | relative viability (NCI-H1355; first compound 500 µM): 0.35 | relative viability (NCI-H2405; first compound 5 µM): 0.657 | relative viability (NCI-H2405; first compound 15.81 µM): 0.711 | relative viability (NCI-H2405; first compound 50 µM): 0.622 | relative viability (NCI-H2405; first compound 158.11 µM): 0.736 | relative viability (NCI-H2405; first compound 500 µM): 0.727 | relative viability (SK-MES-1; first compound 5 µM): 0.772 | relative viability (SK-MES-1; first compound 15.81 µM): 0.659 | relative viability (SK-MES-1; first compound 50 µM): 0.666 | relative viability (SK-MES-1; first compound 158.11 µM): 0.163 | relative viability (SK-MES-1; first compound 500 µM): 0.0794 | relative viability (LCLC-97TM1; first compound 5 µM): 0.641 | relative viability (LCLC-97TM1; first compound 15.81 µM): 0.71 | relative viability (LCLC-97TM1; first compound 50 µM): 0.737 | relative viability (LCLC-97TM1; first compound 158.11 µM): 0.188 | relative viability (LCLC-97TM1; first compound 500 µM): 0.0176 | relative viability (NCI-H441; first compound 5 µM): 0.36 | relative viability (NCI-H441; first compound 15.81 µM): 0.38 | relative viability (NCI-H441; first compound 50 µM): 0.289 | relative viability (NCI-H441; first compound 158.11 µM): 0.124 | relative viability (NCI-H441; first compound 500 µM): 0.0495 | relative viability (ABC-1; first compound 5 µM): 0.629 | relative viability (ABC-1; first compound 50 µM): 0.776 | relative viability (ABC-1; first compound 158.11 µM): 0.185 | relative viability (ABC-1; first compound 500 µM): 0.183 | relative viability (RERF-LC-KJ; first compound 5 µM): 1.28 | relative viability (RERF-LC-KJ; first compound 15.81 µM): 1.22 | relative viability (RERF-LC-KJ; first compound 50 µM): 1.23 | relative viability (RERF-LC-KJ; first compound 158.11 µM): 0.235 | relative viability (RERF-LC-KJ; first compound 500 µM): 0.198 | relative viability (NCI-H727; first compound 5 µM): 0.274 | relative viability (NCI-H727; first compound 15.81 µM): 0.641 | relative viability (NCI-H727; first compound 50 µM): 0.286 | relative viability (NCI-H727; first compound 158.11 µM): 0.188 | relative viability (NCI-H727; first compound 500 µM): 0.115 | relative viability (NCI-H2085; first compound 5 µM): 0.43 | relative viability (NCI-H2085; first compound 15.81 µM): 0.371 | relative viability (NCI-H2085; first compound 50 µM): 0.406 | relative viability (NCI-H2085; first compound 158.11 µM): 0.177 | relative viability (NCI-H2085; first compound 500 µM): 0.118 | relative viability (UMC-11; first compound 5 µM): 0.977 | relative viability (UMC-11; first compound 15.81 µM): 1.02 | relative viability (UMC-11; first compound 50 µM): 0.955 | relative viability (UMC-11; first compound 158.11 µM): 0.148 | relative viability (UMC-11; first compound 500 µM): 0.112
